Results from publication PMC10600239, “Selective MCL-1 inhibitor ABBV-467 is efficacious in tumor models but is associated with cardiac troponin increases in patients” (Communications Medicine, 2023).
Several values for one entry are separate records, joined by “and”; a condition that tells them apart may be missing. Equal values may be shown once. Read-outs that look alike come from different tables or passages of the source.

Assays:
[1] = test system: Murine p185+ B-ALL cells expressing human MCL-1; assay: Engineered murine B-cell ALL lines, cell viability (CellTiter-Glo); assay type: cell-based; details: Mus musculus, 24 hours, 10% fetal bovine serum
Description: Supplementary Table S3: Cellular potency and selectivity of ABBV-467 in
engineered murine B-c ell ALL c ell li nes
B-Cell ALL Lines (EC50, nM)
BCL-XL BCL-2 BCL-w BCL2A1 MCL-1
Murine p185+ B-ALL cells selectiv ely expressing individual human anti–BCL-2 family members (36)
were treated with ABBV-467 for 24 hours in RPMI-1640 media ( Life Technologies, CA) containing
10% fetal bovine serum, 55 μM 2 -mercaptoethanol, 2 mM glutamine, and 1%
penicil lin/ stre ptomycin an d th e i mpact on cell via bility de termi ned usi ng Ce llTiter- Glo. Each EC50 was
calculated from the resulting dose- response curves. Data are presented as the mean of three
independent experiments, except *(n=2). Where an EC50 could not be accurately determined,
activity was define d as >3,000 nM.
ALL, acute lymphoblastic leukemia; BCL- 2, B-cell lymphoma 2; EC 50, half maximal effective

BCL2-A1 = molecular target: T1, BCL2-A1 (Homo sapiens, UniProt Q16548); assay: Time-resolved FRET binding assay; details: TR-FRET, individual determinations; read-out: Individual Ki, BCL2-A1
T1 sequence (Q16548 1-175): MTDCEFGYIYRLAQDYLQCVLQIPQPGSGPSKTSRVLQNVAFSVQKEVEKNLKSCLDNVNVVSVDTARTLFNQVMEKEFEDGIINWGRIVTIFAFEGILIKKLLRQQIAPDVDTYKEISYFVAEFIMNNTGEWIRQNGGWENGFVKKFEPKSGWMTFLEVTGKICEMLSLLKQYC
Description: (§1) Binding affinities for MCL-1, BCL-2, BCL-XL, BCL-W, and BCL2-A1 were determined using a time-resolved fluorescence resonance energy transfer (FRET) assay. Test compounds were serially diluted in DMSO starting at […] (20× starting concentration; 100% DMSO followed by a 1:10 dilution of the compound DMSO plate into assay buffer); 10 µL of the compound in 10% DMSO was then transferred into a 384-well plate (low-volume Corning #3673 assay plate). Glutathione S-transferase (GST)-tagged recombinant BCL-2, BCL-XL, MCL-1, BCL-W, or BCL2-A1 protein (1 nM each) were mixed with 100 nM Oregon Green™-labeled f-BAK peptide probe and 1 nM Tb-labeled anti-GST antibody were mixed. Then 10 µL of a 2× protein/probe/antibody mix was added to each well of increasing concentrations of test compound in assay buffer (20 mM potassium phosphate, pH 7.6, 50 mM NaCl, 1 mM ethylenediaminetetraacetic acid disodium salt dihydrate, 0.05% pluronic acid F-68, 1 mM DL-dithiothreitol) at room temperature (final concentrations listed in Supplementary Table S2). The samples were then mixed on a shaker for 1 min and incubated for an additional 1 h at room temperature. For each assay plate, a probe/antibody and protein/antibody/probe mixture were included as a negative and a positive control, respectively. Fluorescence was measured on the EnVision™ (Perkin Elmer) using a 340/35-nm excitation filter and 520/525- (F-Bak) and 495/510-nm (Tb-labeled anti-glutathione S-transferase [GST] antibody) emission filters. Dissociation constants were determined using Wang’s equation[35]. The time-resolved FRET assay can be performed in the presence of varying concentrations of human serum to determine apparent half-maximal inhibitory concentration after serum protein binding.

BCL-W = molecular target: T2, BCL-W (Homo sapiens, UniProt Q92843); assay: Time-resolved FRET binding assay
T2 sequence (Q92843 1-193): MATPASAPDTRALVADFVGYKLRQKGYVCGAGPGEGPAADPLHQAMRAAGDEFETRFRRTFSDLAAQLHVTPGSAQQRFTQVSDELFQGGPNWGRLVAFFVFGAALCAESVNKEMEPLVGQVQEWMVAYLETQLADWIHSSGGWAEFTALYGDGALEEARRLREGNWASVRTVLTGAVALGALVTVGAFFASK
Description: as §1

BCL-2 = BCL-2 (Homo sapiens, UniProt P10415); assay: Time-resolved FRET binding assay; details: TR-FRET
Sequence of BCL-2 (P10415 whole entry): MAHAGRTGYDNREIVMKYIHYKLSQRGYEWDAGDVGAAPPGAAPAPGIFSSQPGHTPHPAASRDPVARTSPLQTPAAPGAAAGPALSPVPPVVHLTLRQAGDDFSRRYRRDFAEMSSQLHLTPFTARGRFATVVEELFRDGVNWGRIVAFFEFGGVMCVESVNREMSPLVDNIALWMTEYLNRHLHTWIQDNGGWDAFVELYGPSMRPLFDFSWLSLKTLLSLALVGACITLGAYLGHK
Description: as §1

BCL-XL = BCL-XL (Homo sapiens, UniProt Q07817); assay: Time-resolved FRET binding assay
Sequence of BCL-XL (Q07817 whole entry): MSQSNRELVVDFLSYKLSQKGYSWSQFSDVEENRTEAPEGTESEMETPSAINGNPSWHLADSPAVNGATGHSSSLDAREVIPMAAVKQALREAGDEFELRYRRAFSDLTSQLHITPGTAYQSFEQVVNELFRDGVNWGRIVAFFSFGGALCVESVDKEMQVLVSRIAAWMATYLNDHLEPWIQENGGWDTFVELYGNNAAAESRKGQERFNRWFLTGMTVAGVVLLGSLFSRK
Description: as §1

H929 cells = assay: Caspase-3/7 activation, Δψm and annexin-V positivity by flow cytometry; assay type: cell-based, human; set-up: MMP / H929 zVAD Fig 2C: unit not given here; details: for Caspase-3/-7 Activation / MMP / H929 zVAD Fig 2C: H929; for Caspase-3/-7 Activation: Fig 2A; for MMP: Fig 2B
Description: H929 cells cultured in RPMI 1640 medium (Sigma, St. Louis, MO) supplemented with 10% fetal bovine serum (Gibco, Grand Island, NY) were pretreated with a pan-caspase inhibitor z-VAD-fmk (MP Biomedicals, Solon, OH; 50 µM) for 1 h before the addition of ABBV-467 for a further 6 h. Cells were then washed twice with Dulbecco’s phosphate-buffered saline and resuspended in staining buffer for determination of caspase-3/7 activation, Δψm, and annexin-V positivity using the Intellicyt MultiCyt 4-Plex Kit and high-content flow cytometry (Intellicyt, Albuquerque, NM).

[2] = 4-week (5-dose) IV infusion toxicity study with 4-week recovery; details: rats
Description: range-finding studies, and 4-we ek (5-dose) with recovery GLP studies in rats and dogs. For all studies, test item was
administered once weekly by 30 -minute IV infusion. Standard GLP endpoints were assessed including in- life (body weights,
clinical observations, eye exams), electro cardiograms (dog s only), clinical pathology (hematology, clinical chemistry, and
coagulation) and anatomic pathology (macroscopic and mic roscopic observations and organ weights).
Study design was generally in compliance with FDA Redbook
Guidance IV.C. 3.a. and IV.C.3. b. sections on short-term toxicity studies with rodents and non- rodents, respectively (viz.
Studies were appr oved by the animal use committee of Charles River Laboratories, Mattawan, MI. No animals or
data were excluded from analysis. Healthy dogs, as determined by veterinary physical examination and clinical pathology,
were randomized between dose groups using laboratory information management softw are.

Compound: Cc1c(Cl)c2c(Cl)c(C)c1-c1c(-c3ccc(F)cc3)sc3ncnc(c13)O[C@@H](C(=O)O)Cc1cc(ccc1OCc1ccnc(-c3ccc(OC[C@H]4COCCO4)cc3)n1)OC[C@@H](CN1CCN(C)CC1)O2 [ABBV-467]
- EC50 [1]: 20.3 nM
- Ki (BCL2-A1): 402 nM and > 468 nM (2×)
- Ki (BCL-W; TR-FRET, arithmetic mean, read-out: Arithmetic Mean Ki, BCL-W): > 247 nM
- Ki (BCL-W; TR-FRET, individual determinations, read-out: Individual Ki, BCL-W): > 247 nM
- Ki (BCL-W; read-out: TR-FRET, Ki, nM BCL-W): > 247 nM
- Ki (BCL-2; arithmetic mean, read-out: Arithmetic Mean Ki, BCL-2): > 642 nM
- Ki (BCL-2; individual determinations, read-out: Individual Ki, BCL-2): > 642 nM
- Ki (BCL-XL; TR-FRET, arithmetic mean, read-out: Arithmetic Mean Ki, BCL-XL): > 376 nM
- Ki (BCL-XL; TR-FRET, individual determinations, read-out: Individual Ki, BCL-XL): > 376 nM
- Ki (BCL-XL; read-out: TR-FRET, Ki, nM BCL-XL): > 376 nM
- Caspase-3/-7 Activation (H929 cells; Log [ABBV-467] uM 0.045757): 53.8099 and 53.0567 and 99.0546 and 98.9774
- Caspase-3/-7 Activation (H929 cells; Log [ABBV-467] uM 0.522879): 56.0913 and 57.1822 and 99.1897 and 99.0858
- Caspase-3/-7 Activation (H929 cells; Log [ABBV-467] uM 1): 64.5099 and 63.3101 and 99.1237 and 99.059
- MMP (H929 cells; Log [ABBV-467] uM 1): 45.9293
- Caspase-3/-7 Activation (H929 cells; Log [ABBV-467] uM -0.43136): 50.714 and 51.6373 and 98.7601 and 98.6341
- MMP (H929 cells; Log [ABBV-467] uM -0.90849): 38.9227
- Caspase-3/-7 Activation (H929 cells; Log [ABBV-467] uM -1.86273): 33.5112 and 33.8695 and 61.3327 and 57.2365
- MMP (H929 cells; Log [ABBV-467] uM -1.86273): 31.9106 and 36.0956 and 42.4956 and 39.7476
- Caspase-3/-7 Activation (H929 cells; Log [ABBV-467] uM -2.33985): 30.5735 and 30.5502 and 33.1767 and 32.117
- MMP (H929 cells; Log [ABBV-467] uM -2.81697): 29.9048
- H929 zVAD Fig 2C (H929 cells; Vehicle, Log [ABBV-467] uM 0.522879): 78.4582 and 79.5333 and 93.9539 and 93.9739
- H929 zVAD Fig 2C (H929 cells; Vehicle, Log [ABBV-467] uM 1): 82.31 and 82.4987 and 93.6098 and 94.0208
- H929 zVAD Fig 2C (H929 cells; Vehicle, Log [ABBV-467] uM -0.90849): 61.8581 and 57.4223 and 88.7815 and 89.1451
- H929 zVAD Fig 2C (H929 cells; Vehicle, Log [ABBV-467] uM -1.86273): 33.1301 and 34.5804 and 48.8387 and 44.3698
- H929 zVAD Fig 2C (H929 cells; Vehicle, Log [ABBV-467] uM -2.81697): 10.2236
- H929 zVAD Fig 2C (H929 cells; z-VAD-fmk, Log [ABBV-467] uM 0.045757): 25.2697
- H929 zVAD Fig 2C (H929 cells; z-VAD-fmk, Log [ABBV-467] uM 1): 9.553 and 7.075
- H929 zVAD Fig 2C (H929 cells; z-VAD-fmk, Log [ABBV-467] uM -0.43136): 25.945
- H929 zVAD Fig 2C (H929 cells; z-VAD-fmk, Log [ABBV-467] uM -1.38561): 25.2659
- H929 zVAD Fig 2C (H929 cells; z-VAD-fmk, Log [ABBV-467] uM -1.86273): 25.2352
- H929 zVAD Fig 2C (H929 cells; z-VAD-fmk, Log [ABBV-467] uM -2.33985): 25.2036
- hallmarks of apoptosis induced (H929 cells; H929 cells, 6 h): dose-dependent loss in mitochondrial membrane potential, caspase-3/7 activation, and phosphatidyl serine externalization
- effect of pan-caspase inhibition with z-VAD-fmk on induced apoptosis (H929 cells; z-VAD-fmk 50 µM): abrogated
- impact on cardiovascular endpoints (anatomic, clinical pathology, and/or function) ([2]; multidose GLP toxicity study): No direct impact
- reversibility of toxicities ([2]; after a 4-week recovery period): partially or fully reversible
- primary target organs of apoptosis/single-cell necrosis ([2]; once-weekly dosing): pancreas, liver, gastrointestinal tract, and the hematopoietic system
